Data on 28 compounds can be found in patent publication US20020132853A1, “Capsaicin receptor ligands” (priority 2000, published 2002).

Like-named read-outs stand apart in the source and are kept apart here. Bounds are passed on as bounds.

For this experiment, the target named is T1, human capsaicin receptor (Homo sapiens, UniProt Q8NER1).
T1 construct: expression consrtuct encoding the full length human capsaicin receptor; expressed in transfected cells
Nature of the experiment: Antagonist assay for Capsaicin receptor mediated calcium mobilization. In kind it is cell-based. The settings on record: read-out: EC50 (the source's name). As for the experimental part: Calcium Mobilization Assay
Cells transfected with expression plasmids (as described in Example 10) and thereby expressing the human capsaicin receptor are seeded and grown to 70-90% confluency in FALCON black-walled, clear-bottomed 96-well plates (#3904, BECTON-DICKINSON, Franklin Lakes, N.J.) . The culture media are emptied from the 96 well plates and FLUO-3 AM calcium sensitive dye (Molecular Probes, Eugene, OR) is added to each well (dye solution: 1 mg FLUO-3 AM, 440 uL DMSO and 440 ul 20% pluronic acid in DMSO, diluted 1:4, 50 ul diluted solution per well). Plates are covered with aluminum foil and incubated at 37° C for 1-2 hours in an environment containing 5% CO2. After the incubation the dye is emptied from the plates, and the cells are washed once with Krebs-Ringer HEPES (KRH) buffer (25 mM HEPES, 5 mM KCl, 0.96 mM NaH2PO4, 1 MM MgSO4, 2 mM CaCl2, 5 mM glucose, 1 mM probenecid, pH 7.4), and resuspended in KRH buffer.
Agonist (e.g., olvanil, capsaicin, or RTX)-induced calcium mobilization is monitored using either FLUOROSKAN ASCENT (Labsystems, Franklin, Mass.) or FLIPR (fluorometric imaging plate reader system, Molecular Devices, Sunnyvale, Calif.) instruments. Similarly, varying concentrations of the antagonists ruthenium red or capsazepine are added to cells concurrently with agonist (e.g., 25-50 nM capsaicin). For agonist-induced calcium responses, data obtained between 30 and 60 seconds after agonist application are used to generate the EC50 values. […] software (Synergy Software, Reading, Pa.) was utilized to fit the data to the equation: […]
to determine the EC50 for the response. In this equation, y is the maximum fluorescence signal, x is the concentration of the agonist or antagonist, a is the Emax, b corresponds to the EC50 or IC50 value, and finally, c is the Hill coefficient.
Assay for Determination of Capsaicin Receptor Antagonist Effects
In order to measure the ability of a test compound to antagonize (inhibit) the response of cells expressing capsaicin receptors to capsaicin or other vanilloid agonist, the EC50 of capsaicin is first determined.
An additional 20 ul of KRH buffer and 1 ul DMSO is added to each well of cells, prepared as described above. 100 ul capsaicin in KRH buffer is automatically transferred by the FLIPR instrument to each well.
Test compounds are dissolved in DMSO, diluted in 20 ul KRH buffer so that the final concentration of test compounds in the assay well is between 1 uM and 5 uM, and added to cells prepared as described above. The 96 well plates containing prepared cells and test compounds are incubated in the dark, at room temperature for 0.5-6 hours. It is important that the incubation not continue beyond 6 hours. Just prior to determining the fluorescence response, 100 ul capsaicin in KRH buffer at twice the EC50 concentration determined from the concentration response curve is automatically added by the FLIPR instrument to each well of the 96 well plate for a final sample volume of 200 ul and a final capsaicin concentration equal to the EC50. The final concentration of test compounds in the assay wells is between 1 uM and 5 uM. […] Antagonists of the capsaicin receptor decrease this response by about 20%, preferably by about 50%, and most preferably by at least 80% as compared to matched control. The concentration of antagonist required to provide a 50% decrease is the EC50 for the antagonist (also referred to as the IC50).
For orientation: Calcium flux is commonly read through the fluorescence of an indicator in the cells.

T1 sequence (Q8NER1 whole entry): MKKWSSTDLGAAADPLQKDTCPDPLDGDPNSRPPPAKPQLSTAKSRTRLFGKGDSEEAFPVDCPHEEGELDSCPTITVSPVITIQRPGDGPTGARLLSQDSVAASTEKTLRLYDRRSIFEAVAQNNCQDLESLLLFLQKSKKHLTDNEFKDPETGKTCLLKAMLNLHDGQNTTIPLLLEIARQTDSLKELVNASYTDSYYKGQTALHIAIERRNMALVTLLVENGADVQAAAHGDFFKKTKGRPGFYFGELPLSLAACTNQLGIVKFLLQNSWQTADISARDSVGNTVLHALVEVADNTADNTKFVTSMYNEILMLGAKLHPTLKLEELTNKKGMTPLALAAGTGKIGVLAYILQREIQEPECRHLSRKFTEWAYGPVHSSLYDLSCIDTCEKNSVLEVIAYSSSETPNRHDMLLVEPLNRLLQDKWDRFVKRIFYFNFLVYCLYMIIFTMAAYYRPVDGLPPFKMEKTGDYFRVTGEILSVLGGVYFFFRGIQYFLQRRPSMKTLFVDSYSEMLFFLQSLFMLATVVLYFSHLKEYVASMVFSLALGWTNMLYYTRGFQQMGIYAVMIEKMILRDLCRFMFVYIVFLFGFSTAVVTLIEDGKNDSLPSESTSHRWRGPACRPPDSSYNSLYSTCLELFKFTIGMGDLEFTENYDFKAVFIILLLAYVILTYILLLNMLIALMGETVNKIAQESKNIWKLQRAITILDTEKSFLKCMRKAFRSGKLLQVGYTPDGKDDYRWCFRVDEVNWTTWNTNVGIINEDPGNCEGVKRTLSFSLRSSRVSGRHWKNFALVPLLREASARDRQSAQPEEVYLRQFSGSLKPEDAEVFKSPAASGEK

As for `C[C@@H]1CN(c2ncccc2C#N)CCN1C(=O)Nc1ccc(C(C)(C)C)cc1` [Compound 82, (2R)-N-(4-tert-butylphenyl)-4-(3-cyanopyridin-2-yl)-2-methylpiperazine-1-carboxamide], the IC50 (Table III) is less than 1000 nM.

For the compound `C[C@@H]1CN(c2ncccc2C#N)CCN1C(=O)Nc1ccc(C(F)(F)F)cc1` [Compound 83, (2R)-4-(3-cyanopyridin-2-yl)-2-methyl-N-[4-(trifluoromethyl)phenyl]piperazine-1-carboxamide], the IC50 (Table III) was less than 1000 nM.

For the compound `Cc1cccc(N2CCN(C(=O)Nc3ccc(C(C)(C)C)cc3)[C@H](C)C2)n1` [Compound 86, (2R)-N-(4-tert-butylphenyl)-2-methyl-4-(6-methylpyridin-2-yl)piperazine-1-carboxamide], the IC50 (Table III) was less than 1000 nM.

On to `O=C(Nc1ccc(C(F)(F)F)cn1)N1CCN(c2ncccc2Cl)CC1` [Compound 93, 4-(3-chloropyridin-2-yl)-N[5-(trifluoromethyl)pyridin-2-yl]piperazine-1-carboxamide], for which the IC50 (Table IV) is less than 1000 nM.

Consider `C[C@@H]1CN(c2ncccc2Cl)CCN1C(=O)Nc1ccc(C(F)(F)F)cn1` [Compound 94, (2R)-4-(3-chloropyridin-2-yl)-2-methyl-N-[5-(trifluoromethyl)pyridin-2-yl]piperazine-1-carboxamide], for which the IC50 (Table IV) was less than 1000 nM.

Take `C[C@@H]1CN(c2nccnc2Cl)CCN1C(=O)Nc1ccc(C(C)(C)C)cc1` [Compound 95, (2R)-N-(4-tert-butylpghenyl)-4-(3-chloropyrazin-2-yl)-2-methylpiperazine-1-carboxamide]: the IC50 (Table IV) is less than 1000 nM.

With `CC(C)c1ccc(NC(=O)N2CCN(c3nccnc3Cl)C[C@H]2C)cc1` [Compound 96, (2R)-4-(3-chloropyrazin-2-yl)-N-(4-isopropylphenyl)-2-methylpiperazine-1-carboxamide], the IC50 (Table IV) is less than 1000 nM.

Consider `C[C@@H]1CN(c2ncccc2Cl)CCN1C(=O)Nc1ccc(C(F)(F)F)nc1` [Compound 98, (2R)-4-(3-chloropyridin-2-yl)-2-methyl-N-[6-(trifluoromethyl)pyridin-3-yl]piperazine-1-carboxamide], for which the IC50 (Table IV) was less than 1000 nM.

On to `C[C@@H]1CN(c2ncccc2Cl)CCN1C(=O)NC1CCC(C(C)(C)C)CC1` (stereo partly drawn) [Compound 99, (2R)-N-(4-tert-butylcyclohexyl)-4-(3-chloropyridin-2-yl)-2-methylpiperazine-1-carboxamide], for which, under “Table IV”, the IC50 was less than 1000 nM.

`CC(C)C1CCC(NC(=O)N2CCN(c3ncccc3Cl)C[C@H]2C)CC1` (stereo partly drawn) [Compound 100, (2R)-4-(3-chloropyridin-2-yl)-N-(4-isopropylcyclohexyl)-2-methylpiperazine-1-carboxamide]: the IC50 (Table IV) is less than 1000 nM.

As to `CC(C)C1CCC(NC(=O)N2CCN(c3ncccc3C(F)(F)F)C[C@H]2C)CC1` (stereo partly drawn) [Compound 101, (2R)-N-(4-isopropylcyclohexyl)-2-methyl-4-[3-(trifluoromethyl)pyridin-2-yl]piperazine-1-carboxamide], the IC50 (Table IV) was less than 1000 nM.

For `O=C(Nc1ccc(Cl)cc1)N1CCN(c2cc(C(F)(F)F)ccn2)CC1` [Compound 107, N-(4-chlorophenyl)-4-[4-(trifluoromethyl)pyridin-2-yl]piperazine-1-carboxamide], the IC50 (Table V) is less than 1000 nM.

`O=C(Nc1ccc(OC(F)(F)F)cc1)N1CCN(c2cc(C(F)(F)F)ccn2)CC1` [Compound 108, N-[4-*trifluoromethoxy)phenyl]-4-[4-(trifluoromethyl)pyririn-2-yl]piperazine-1-carboxamide]: the IC50 (Table V) was less than 1000 nM.

On to `O=C(Nc1cccc(Cl)c1)N1CCN(c2cc(C(F)(F)F)ccn2)CC1` [Compound 109, N-(3-chlorophenyl)-4-[4-(trifluoromethyl)pyridin-2-yl]piperazine-1-carboxamide], for which the IC50 (Table V) is less than 1000 nM.

In the case of `O=C(Nc1cccc(C(F)(F)F)c1)N1CCN(c2ncccc2C(F)(F)F)CC1` [Compound 110, N-[3-(trifluoromethyl)phenyl]-4-[3-(trifluoromethyl)pyridin-2-yl]piperazine-1-carboxamide], the IC50 (Table V) was less than 1000 nM.

For `COc1cccc(NC(=O)N2CCN(c3ncccc3C(F)(F)F)CC2)c1` [Compound 113, N-(3-methoxyphenyl)-4-[3-(trifluoromethyl)pyridin-2-yl]piperazine-1-carboxamide], the IC50 (Table V) is less than 1000 nM.

In the case of `O=C(Nc1cccc([N+](=O)[O-])c1)N1CCN(c2ncccc2C(F)(F)F)CC1` [Compound 116, N-(3-nitrophenyl)-4-[3-(trifluoromethyl)pyridin-2-yl]piperazine-1-carboxamide], under “Table V”, the IC50 was less than 1000 nM.

Take `O=C(Nc1ccc(OC(F)(F)F)cc1)N1CCN(c2ncccc2C(F)(F)F)CC1` [Compound 117, N-[4-(trifluoromethoxy)phenyl]-4-[3-(trifluoromethyl)pyridin-2-yl]piperazine-1-carboxamide]: the IC50 (Table V) was less than 1000 nM.

Regarding `O=C(Nc1ccc(Cl)c([N+](=O)[O-])c1)N1CCN(c2ncccc2C(F)(F)F)CC1` [Compound 118, N-(4-chloro-3-nitrophenyl)-4-[3-(trifluoromethyl)pyridin-2-yl]piperazine-1-carboxamide], the IC50 (Table V) is less than 1000 nM.

With `O=C(Nc1cc(Cl)cc(Cl)c1)N1CCN(c2ncccc2C(F)(F)F)CC1` [Compound 119, N-(3,5-dichlorophenyl)-4-[3-(trifluoromethyl)pyridin-2-yl]piperazine-1-carboxamide], the IC50 (Table V) is less than 1000 nM.

In the case of `C[C@@H]1CN(c2ncccc2Cl)CCN1C(=O)Nc1ccc(C(C#N)c2ccccc2)cc1` (stereo partly drawn) [Compound 120, (2R)-4-(3-chloropyridin-2-yl)-N-[4-[cyano(phenyl)methyl]phenyl]-2-methylpiperazine-1-carboxamide], the IC50 (Table V) is less than 1000 nM.

On to `Cc1cc(NC(=O)N2CCN(c3ncccc3Cl)C[C@H]2C)ccc1C(F)(F)F` [Compound 121, (2R)-4-(3-chloropyridin-2-yl)-2-methyl-N-[3-methyl-4-(trifluoromethyl)phenyl]piperazine-1-carboxamide], for which, where the note is “Table V”, the IC50 is less than 1000 nM.

Turning to `Cc1cc(NC(=O)N2CCN(c3ncccc3F)C[C@H]2C)ccc1C(F)(F)F` [Compound 122, (2R)-4-(3-fluoropyridin-2-yl)-2-methyl-N-[3-methyl-4-(trifluoromethyl)phenyl]piperazine-1-carboxamide], the IC50 (Table V) is less than 1000 nM.

Turning to `C[C@@H]1CN(c2ncccc2N(S(C)(=O)=O)S(C)(=O)=O)CCN1C(=O)Nc1ccc(C(C)(C)C)cc1` [Compound 123, (2R)-4-{3-[bis(methylsulfonyl)amino]pyridin-2-yl}-N-(4-tert-butylphenyl)-2-methylpiperazine-1-carboxamide], where the note is “Table V”, the IC50 was less than 1000 nM.

For the compound `Cc1cc(NC(=O)N2CCN(c3ncccc3C(F)(F)F)C[C@H]2C)ccc1C(F)(F)F` [Compound 124, (2R)-2-methyl-N-[3-methyl-4-(trifluoromethyl)phenyl]-4-[3-(trifluoromethyl)pyridin-2-yl]piperazine-1-carboxamide], the IC50 (Table V) was less than 1000 nM.

For the compound `C=C(c1ccc(NC(=O)N2CCN(c3ncccc3Cl)C[C@H]2C)cc1)C(F)(F)F` [Compound 125, (2R)-4-(3-chloropyridin-2-yl)-2-methyl-N-{4-[1-(trifluoromethyl)vinyl]phenyl]piperazine-1-carboxamide], for the setting “Table V”, the IC50 was less than 1000 nM.

With `C=C(c1ccc(NC(=O)N2CCN(c3ncccc3C(F)(F)F)C[C@H]2C)cc1)C(F)(F)F` [Compound 126, (2R)-2-methyl-4-[3-(trifluoromethyl)pyridin-2-yl]-N-{4-[1-(trifluoromethyl)vinyl]phenyl}piperazine-1-carboxamide], the IC50 (Table V) was less than 1000 nM.

As for `C=C(c1ccc(NC(=O)N2CCN(c3ncccc3F)C[C@H]2C)cc1)C(F)(F)F` [Compound 127, (2R)-4-(3-fluoropyridin-2-yl)-2-methyl-N-{4-[1-(trifluoromethyl)vinyl]phenyl}piperazine-1-carboxamide], the IC50 (Table V) is less than 1000 nM.
